Laboratory results taken from patent US6692937B2, “DNA encoding small and intermediate conductance calcium-activated potassium channels” (ICAgen, Incorporated, priority 1997, dated 2004).
Like-named read-outs stand apart in the source and are kept apart here.

Key:
Format in all cases: cell-based
hSK1 = target: T1, hSK1 (Homo sapiens, UniProt Q92952); test: Macroscopic currents in inside-out macropatches excised from Xenopus oocytes expressing hSK1
T1 construct: expressed in transfected cells; host or cells: Xenopus oocytes injected with in vitro transcribed mRNA
Text: (§1) Electrode resistance was typically 2-5 MΩ. Membrane patches were voltage clamped using an Axopatch 200A amplifier (Axon Instruments).

rSK2 = target: T2, rSK2 (Rattus norvegicus, UniProt P70604); test: Macroscopic currents in inside-out macropatches excised from Xenopus oocytes expressing rSK2
T2 construct: expressed in transfected cells; host or cells: Xenopus oocytes injected with in vitro transcribed mRNA
Text: as §1
(§2) To compare hIK1 and SK2, normalized current was plotted as a function of Ca^2+ concentration, and the data points fitted with the Hill equation.

hIK1 = target: T3, hIK1 (Homo sapiens, UniProt O15554); test: Macroscopic hIK1 currents in macropatches excised from Xenopus oocytes
T3 construct: expressed in transfected cells; host or cells: Xenopus oocytes injected with SP6-transcribed mRNA from vector pBF
Experimental: 3B. Example 3B describes the electrophysiology of the hIK1 channel. All hIK1 channel subunits were subcloned into the oocyte expression vector pBF (unpublished, graciously provided by Dr. B. Fakler) which provides 5′ and 3′ untranslated regions from the Xenopus β-globin gene flanking a polylinker containing multiple restriction sites. In vitro mRNAs were generated using SP6 polymerase (GibcoBRL); following synthesis, mRNAs were evaluated spectrophotometrically and by ethidium bromide staining after agarose gel electrophoresis.
As described above, Xenopus care and handling were in accordance with the highest standards of institutional guidelines. Frogs underwent no more than two surgeries, separated by at least three weeks, and All surgeries were performed using well established techniques. Frogs were anesthetized with an aerated solution of 3-aminobenzoic acid ethyl ester. Oocytes were studied 2-14 days after injection with 0.5-5 ng of mRNA.
Inside-out macropatches were excised into an intracellular solution containing 116 mM K-gluconate. 4 mM KCl, 10 mM HEPES (pH 7.2, adjusted with KOH) supplemented with CaCl2 to give free calcium concentration of 5 μM; the proportion of calcium binding to gluconate was determined by a computer program (CaBuf assuming a stability constant for Ca^2+ gluconate of 15.9M^−1 (Dawson et al., 1969). To obtain Ca^2+ concentrations below 1 μM, 1 mM EGTA was added to the bath solution and CaCl2 was added as calculated using the CaBuf program and published stability constants (Fabiato and Fabiato, 1979). Electrodes were pulled from thin-wailed, filamented borosilicate glass (World Precision Instruments) and filled with 116 mM K-gluconate, 4 mM KCl, 10 mM HEPES (pH 7.2). Electrode resistance was typically 2-5 MΩ. For outside-out macropatches, the solutions were reversed. Membrane patches were voltage clamped using an Axopatch 200A amplifier (Axon Instruments). The data were low-pass Bessel filtered at 1 kH and acquired using Pulse software (HEKA Electronik). Analysis was performed using Pulse, Kaleidagraph (Abelbeck), or IGOR (Wavemetrics) software. Unless otherwise stated all experiments were performed at room temperature from a holding potential of 0 mV. 2.5 second voltage ramps from −100 to either 60 or 100 mV were acquired at a sampling frequency of 500 Hz. Values were expressed as mean±SD. Statistical differences were determined using an unpaired t-test; p values <0.05 were considered significant.
as §2

T1 sequence (Q92952 other isoform, or with tags, fused parts or gaps): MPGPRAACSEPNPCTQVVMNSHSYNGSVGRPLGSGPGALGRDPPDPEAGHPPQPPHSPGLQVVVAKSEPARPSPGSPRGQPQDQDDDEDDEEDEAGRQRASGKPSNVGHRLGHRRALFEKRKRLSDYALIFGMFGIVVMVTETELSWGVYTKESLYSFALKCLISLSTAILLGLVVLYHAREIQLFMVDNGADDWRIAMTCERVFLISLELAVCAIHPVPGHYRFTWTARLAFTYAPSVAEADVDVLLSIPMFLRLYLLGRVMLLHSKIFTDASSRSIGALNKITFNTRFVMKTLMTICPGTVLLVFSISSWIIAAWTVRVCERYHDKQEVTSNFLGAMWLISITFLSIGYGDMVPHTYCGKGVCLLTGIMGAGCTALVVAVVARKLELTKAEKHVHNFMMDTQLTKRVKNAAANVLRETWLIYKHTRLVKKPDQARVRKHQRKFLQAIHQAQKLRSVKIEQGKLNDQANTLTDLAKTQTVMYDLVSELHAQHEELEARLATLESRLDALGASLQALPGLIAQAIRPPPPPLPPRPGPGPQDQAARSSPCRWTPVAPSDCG
T2 sequence (P70604 whole entry): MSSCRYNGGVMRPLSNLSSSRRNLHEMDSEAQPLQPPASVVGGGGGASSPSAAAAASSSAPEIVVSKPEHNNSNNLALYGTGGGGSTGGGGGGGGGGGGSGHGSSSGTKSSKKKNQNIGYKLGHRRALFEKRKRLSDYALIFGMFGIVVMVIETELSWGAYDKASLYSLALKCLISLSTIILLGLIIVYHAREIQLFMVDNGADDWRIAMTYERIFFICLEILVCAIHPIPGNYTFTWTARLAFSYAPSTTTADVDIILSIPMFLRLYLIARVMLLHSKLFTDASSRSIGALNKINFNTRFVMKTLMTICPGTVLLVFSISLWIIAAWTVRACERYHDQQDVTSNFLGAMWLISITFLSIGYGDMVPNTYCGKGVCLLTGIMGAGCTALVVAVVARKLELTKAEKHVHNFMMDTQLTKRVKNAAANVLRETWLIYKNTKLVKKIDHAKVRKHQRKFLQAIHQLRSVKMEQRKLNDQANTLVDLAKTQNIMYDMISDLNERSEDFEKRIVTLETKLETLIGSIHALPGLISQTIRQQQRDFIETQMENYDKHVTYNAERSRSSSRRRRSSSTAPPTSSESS

Molecule: COc1cc2c3cc1Oc1cc(ccc1O)C[C@@H]1c4c(cc(OC)c(O)c4Oc4ccc(cc4)C[C@@H]3N(C)CC2)CC[N+]1(C)C [dTC, d-tubocurare, reference compound]
- fold less sensitive, hSK1 versus rSK2 (hSK1; ratio of Kd hSK1 to Kd rSK2): approximately 30 fold
- Kd (hSK1; read-out: Kd for block of hSK1): 76200 nM
- Kd (rSK2; 5 μM Ca2+, inside-out macropatches, dTC in patch pipette, read-out: Kd for block of rSK2 currents): 2400 nM

Molecule: CC(C)C[C@@H]1NC(=O)[C@H](C)NC(=O)[C@H]([C@@H](C)O)NC(=O)[C@H](CCC(=O)O)NC(=O)[C@@H]2CCCN2C(=O)[C@H](C)NC(=O)[C@H](CCCCN)NC(=O)[C@@H]2CSSC[C@@H](C(=O)N[C@@H](CCC(N)=O)C(=O)N[C@@H](CCC(N)=O)C(=O)N[C@@H](Cc3cnc[nH]3)C(N)=O)NC(=O)[C@H](CCCNC(=N)N)NC(=O)[C@H](CCCNC(=N)N)NC(=O)[C@H](C)NC(=O)[C@H](CSSC[C@H](N)C(=O)N[C@@H](CC(N)=O)C(=O)N2)NC1=O [apamin]
- reduction of hIK1 currents (hIK1; 100 nM apamin): 12±5%

Molecule: CC(=O)N1CCN(c2ccc(OCC3COC(Cn4ccnc4)(c4ccc(Cl)cc4Cl)O3)cc2)CC1 (stereo not shown) [ketoconazole]
- block of hIK1 (hIK1; 10 μM ketoconazole): 24±6%

Molecule: [Ca+2] [calcium]
- Hill coefficient of calcium dependence, hSK1 (hSK1; Hill fit): 3.90±0.45
- Kd (hSK1; Hill fit, read-out: Kd for calcium, hSK1): 700 ± 60 nM
- Hill coefficient of calcium dependence, rSK2 (rSK2; Hill fit, 8 patches): 4.81±1.46
- Hill coefficient of Ca2+-dependence, SK2 (rSK2; n=4): 3.5±0.4
- Kd (rSK2; slope conductance at reversal potential versus calcium, Hill fit, 8 patches, read-out: average Kd for calcium, rSK2): 630 ± 230 nM
- Hill coefficient of Ca2+-dependence, hIK1 (hIK1; n=7): 1.7±0.3
- EC50 (hIK1; normalized current versus Ca2+ concentration, n=7, read-out: K0.5 (concentration for half-maximal activation), hIK1): 320 ± 30 nM

Molecule: iberiotoxin (QFTDVDCSVSKECWSVCKDLFGVDRGKCMGKKCRCYQ) [IBX]
- block of hIK1 currents (hIK1; 50 nM IBX): 15±3%
